One experiment concerns Sugar Beet. As to the kind of experiment: Pre-emergence herbicide test, sugar beet. The experiment is classed as in vivo. The procedure: (§1) In this evaluation, each compound to be tested was dissolved in a 1:1 mixture of acetone and ethanol containing a small amount of Toximul R and Toximul S (each a sulfonate/nonionic blend produced by Stepan Chemical Company, Northfield, Illinois). The solution was then diluted with deionized water to a composition of the following concentrations, by weight: Plant species used as indicators of herbicidal activity were planted in galvanized pans (flats) 31.5 cm. long, 21.5 cm. wide, and 8.0 cm. deep. The bottoms of the flats had holes to facilitate drainage. The soil used was a 1:1 ratio by volume of masonry sand and shredded top soil. Flats that were to receive preemergence treatments were planted one day prior to, or on the same day treatments were applied. Flats that were to receive postemergence treatments were planted 9 days prior to treatment and placed in a growth chamber until the day of treatment. In the growth chamber, flats received 12 to 18 hours of light per day and were subject to temperatures of 75° to 85° F. The formulated test compound was applied uniformly to the indicator species with a modified DeVilbiss atomizer using air pressure of 3 to 5 psi. Each flat received 12.5 ml. of spray solution which was equal to 200 gallons/acre total spray volume. Plants were maintained in a greenhouse after treatment. Herbicidal effects of chemicals were evaluated by two injury rating systems 18 days after preemergence applications and 14 days after postemergence applications. The degree of plant injury was based on a 1 to 5 scale and a single numerical rating was assigned to each test species as follows: […]

The subject of a further experiment is Jimsonweed. The experiment can be described thus: Pre-emergence herbicide test, jimsonweed. The class given is in vivo. The procedure:
as §1

The test system of the next experiment is housefly. The experiment can be described thus: House fly contact test. On all read-outs here: ranges in brackets are in %. The experiment is classed as in vivo, Musca domestica. The settings on record: 1000 ppm; for Housefly Kd. (knockdown rating): 2 hours; for Housefly Cont. (mortality rating): 24 hours. The procedure:
In this evaluation, each compound to be tested was dissolved in a 1:1 mixture of acetone and ethanol containing a small amount of Toximul R and Toximul S (each a sulfonate/nonionic blend produced by Stephan Chemical Company, Northfield, Ill.). The solution was then diluted with distilled water to a concentration of 1000 ppm of test compound. Lesser concentration formulations were made by diluting a portion of the 1000 ppm solution with distilled water containing 225 mg. of Toximul R and 125 mg. of Toximul S per liter.
This test was conducted with 4-day-old adults of Musca domestica (Linne), Order Diptera, Family Muscidae.
Rearing cages of 4-day-old adult house flies were placed in a cold room and held for one hour at 35° to 40° F. to chill so that the flies could be transferred to test cages. Approximately 100 flies were transferred to each test cage using a small scoop. The stainless steel test cages were five inches in diameter and one and three-fourths inches deep with a stainless steel screen bottom and screened removable friction fitting lid. The small hole on the side of the cage was kept stoppered except when a wick was inserted for feeding and watering.
Each cage was sprayed with 5 ml. of the test formulation containing 1000 ppm. of the test compound, using a DeVilbiss atomizer supplied with 5 psi air pressure. The nozzle was 33 inches from the top of the cage. After spraying, cages were allowed to dry.
Knockdown counts were made two hours after spraying and then the flies were fed and watered by inserting a four-inch wick of Fibre Flex Supreme, unbleached (16/32"), (manufactured by Sackner Products, Inc., Grand Rapids, Mich.) in the hole on the side of the cage. The cage was placed so that the wick hung down into a pan of five percent sugar solution in water.
One replicate was run for each test compound. One unsprayed cage was held as a control, one cage was sprayed as a negative control, and one cage was sprayed with a formulation containing 50 ppm. (0.005%) DDT as a reference standard.
Mortality counts were made 24 hours after spraying. The cage was rapped lightly. […] Moribund flies were counted as dead.

Another experiment has as its system Wild Oat. The experiment can be described thus: Pre-emergence herbicide test, wild oat. The class given is in vivo. The procedure:
as §1

In another experiment the test system is Tomato. As to the kind of experiment: Pre-emergence herbicide test, tomato. The class given is in vivo. The method, then:
as §1

The subject of experiment [1] is blowfly larvae. As to the kind of experiment: Efficacy against blowfly larvae, calves intravenous injection (Example 17). The class given is in vivo, Phormia regina. The settings on record: daily i.v. 0.5 to 1.5 mg/kg escalating, day per line. The procedure: (§2) Representative compounds of the present invention were evaluated against larvae of blowfly (Phormia regina) and against adult housefly (Musca domestica). In these evaluations, the candidate compound was administered to each of two male guinea pigs weighing from about 400 grams to about 1000 grams. Administration was via the intraperitoneal route, the compound having been formulated in sesame oil. At twenty-four hours following administration of the compound, blood was withdrawn from the guinea pigs. The serum portion was isolated and blowfly larvae and adult houseflies were fed on the serum. For the blowfly assay, 10 ml. of serum were placed in a test tube with a wick onto which 50 blowfly larvae were placed. The covered test tube was incubated at 27° C. for 24 hours, at which time efficacy of the candidate compound was determined as the percent mortality of the blowfly larvae, adjusted by normal mortality in a control, and reported according to the following rating scale:
A group of three calves each weighing about 220 kilograms was employed. […]
On each day of the evaluation, immediately preceding that day's injection, a sample of blood was withdrawn from each calf. The concentration of the compound in the blood was determined; and the efficacy of the compound against adult housefly and blowfly larvae was assayed by the method described in Example 15. […]

The next experiment concerns Rice. As to the kind of experiment: Pre-emergence herbicide test, rice. The class given is in vivo. The procedure:
as §1

The subject of a further experiment is Mustard. As to the kind of experiment: Pre-emergence herbicide test, mustard. The experiment is classed as in vivo. The procedure: as §1
A further experiment concerns Wheat. As to the kind of experiment: Pre-emergence herbicide test, wheat. The experiment is classed as in vivo. The method, then: as §1
In experiment [2] the test system is blowfly larvae. The experiment can be described thus: Blowfly larvae fed on serum of dosed guinea pigs. The class given is in vivo, Phormia regina. The settings on record: guinea pig, serum at 24 hours. The method, then: as §2
Percent mortality was determined separately for each guinea pig.

Each structure is given as a SMILES string. Counter-ions that a name gives are not always drawn.

`O=[N+]([O-])c1cc(C(F)(F)F)cc2c1NC(O)(C(F)(F)C(F)F)N2` (centres unmarked) [Example 2, 2-Hydroxy-2-(1,1,2,2-Tetrafluoroethyl)-4-Nitro-6-(Trifluoromethyl)Benzimidazoline, Sodium Salt, and Hydrate]: the plant injury rating is on record as 2S in the experiment with Sugar Beet (1/2 lb/A); 1 (no injury) with Sugar Beet (1/4 lb/A); 5D with Sugar Beet (2 lb/A); 5N with Sugar Beet (4 lb/A); 1 (no injury) in the experiment on Jimsonweed (1/2 lb/A); 1 (no injury) with Jimsonweed (1/4 lb/A). In addition, the plant injury rating in the experiment on Jimsonweed (1 lb/A) is reported as 1 (no injury); in the experiment on Jimsonweed (2 lb/A), 3BS; in the experiment on Jimsonweed (4 lb/A) it was 5D; in the experiment with Wild Oat (1/2 lb/A), 1 (no injury); with Wild Oat (1/4 lb/A) it was 1 (no injury); in the experiment with Wild Oat (1 lb/A), 1 (no injury). The plant injury rating in the experiment on Wild Oat (2 lb/A) is given as 2 (slight injury); with Wild Oat (4 lb/A) it was 5 (death); with Tomato (1/2 lb/A), 2S; in the experiment on Tomato (1/4 lb/A), 1 (no injury); with Tomato (2 lb/A), 1 (no injury); with Tomato (4 lb/A) it was 4BS. Also, the plant injury rating is 1 (no injury) in the experiment with Rice (1/2 lb/A); 1 (no injury) with Rice (1/4 lb/A); 1 (no injury) with Rice (1 lb/A); 2S with Rice (2 lb/A); 2SB with Rice (4 lb/A); 2S with Mustard (1/2 lb/A). The plant injury rating with Mustard (1/4 lb/A) is 1 (no injury); in the experiment on Mustard (1 lb/A) it was 4B; with Mustard (2 lb/A), 5D; with Mustard (4 lb/A) it was 5D; in the experiment on Wheat (1/2 lb/A), 1 (no injury); in the experiment on Wheat (1/4 lb/A) it was 1 (no injury). The plant injury rating in the experiment with Wheat (1 lb/A) was 1 (no injury); with Wheat (2 lb/A), 1 (no injury); in the experiment with Wheat (4 lb/A) it was 3BS. The “Housefly Kd. (knockdown rating)” value in the experiment with housefly is given as 1 (1-50). Moreover, in the experiment with housefly, the “Housefly Cont. (mortality rating)” value is 3 (100). Also, the “% Efficacy, Blowfly Larvae” value in the experiment with blowfly larvae [1] (calf 986) and in the experiment on blowfly larvae [1] (calf 991) was 100% each time.

In the case of `O=[N+]([O-])c1cc(Cl)cc2c1NC(O)(C(F)F)N2` (centres unmarked) [Example 5, 2-Hydroxy-2-(Difluoromethyl)-4-Nitro-6-Chlorobenzimidazoline, Calcium Salt], the “Efficacy Rating, Blowfly Larvae” value with blowfly larvae [2] (1 mg./kg. i.p.) and with blowfly larvae [2] (5 mg./kg. i.p.) was 0 (none dead) each time.

Regarding `O=[N+]([O-])c1cc(C(F)(F)F)cc2c1NC(O)(C(F)(F)C(F)F)N2O` (centres unmarked) [Example 12, 1,2-Dihydroxy-2-(1,1,2,2-Tetrafluoroethyl)-4-Nitro-6-(Trifluoromethyl)Benzimidazoline], the plant injury rating with Sugar Beet (1/2 lb/A) was 1 (no injury); in the experiment with Sugar Beet (1 lb/A), 1 (no injury); in the experiment on Sugar Beet (2 lb/A), 3S; in the experiment on Jimsonweed (1/2 lb/A), 1 (no injury); with Jimsonweed (1 lb/A), 1 (no injury); in the experiment on Jimsonweed (2 lb/A), 1 (no injury). Further, the plant injury rating with Wild Oat (1/2 lb/A) was 1 (no injury); with Wild Oat (1 lb/A), 1 (no injury); in the experiment on Wild Oat (2 lb/A), 2B; with Tomato (1/2 lb/A) it was 1 (no injury); with Tomato (1 lb/A), 1 (no injury); in the experiment with Tomato (2 lb/A) it was 1 (no injury). In addition, the plant injury rating with Rice (1/2 lb/A) was 1 (no injury); with Rice (1 lb/A), 1 (no injury); in the experiment on Rice (2 lb/A), 1 (no injury); in the experiment on Mustard (1/2 lb/A), 1 (no injury); in the experiment on Mustard (1 lb/A), 1 (no injury); in the experiment on Mustard (2 lb/A), 2S. The plant injury rating with Wheat (1/2 lb/A), in the experiment with Wheat (1 lb/A) and in the experiment on Wheat (2 lb/A) was 1 (no injury) each time. Further, the “Housefly Kd. (knockdown rating)” value in the experiment on housefly was 0 (0). The “Housefly Cont. (mortality rating)” value in the experiment with housefly is recorded as 2 (51-99).

Source of the values: US4265901A, “2-Oxybenzimidazoline compounds” (priority 1979, dated 1981).
